Measurements taken from US5254566A, “Decahydroquinoline compounds” (Roussel Uclaf, priority 1991, dated 1993).
Counter-ions that a name gives are not always drawn.

Experiments:
[1] = tested on: Plasmodium falciparum FZ strain resistant to chloroquine; test: Anti-paludal activity in vitro: inhibition of proliferation in continuous culture, FZ strain; assay type: cell-based; conditions: R3 type resistance, parasitemia relative to controls, incubation 48 hours, RPS 10 medium, 5% CO2, read-out: ED50 (FZ strain resistant to chloroquine)
Method: (§1) 2) Test for determining the anti-paludal activity in vitro
(§2) The culturing of Plasmodium falciparum "in vitro" was carried out in cupulas on polystyrene plates used for tissue culture. It was carried out at 37° C. in a CO2 oven by the technique of TRAGER et al (1976-1978) on a modified RPMI 1640 medium (AZOULAY et al 1983) buffered with a mixture of HEPES buffer (40 m.moles/l), glucose (4 g/l) and 10 percent human serum. The anti-malarial activity "in vitro" of the different products tested was studied on two different strains of Plasmodium falciparum, namely an FCC2 strain sensitive to chloroquine and an FZ strain resistant to chloroquine (R3 type resistance). […]
(§3) 0.7 ml of the globular suspension was deposited in each cupula and each concentration of chosen product was tested on 3 cupulas. […] After an incubation time of 48 hours without renewing the medium in a steam chest with a CO2 content of 5%, the parasitemia content of each cupula was evaluated.
(§4) To do this, the canisters were removed from the steam chest and were left for 10 minutes at rest under a hood with laminar flux. […] On these crush preparations, fixed and colored, the different forms of the parasite were counted for 2000 to 3000 red blood corpuscles per plate. The results were expressed as the percentage of proliferation relative to the controls. […]

[2] = tested on: Plasmodium falciparum FCC2 strain sensitive to chloroquine; test: Anti-paludal activity in vitro: inhibition of proliferation in continuous culture, FCC2 strain; assay type: cell-based; conditions: parasitemia relative to controls, incubation 48 hours, RPS 10 medium, 5% CO2, read-out: ED50 (FCC2 strain sensitive to chloroquine)
Method: as §1, §2, §3, §4

IC50 [1]: 0.34 µg/mL
IC50 [2]: 0.35 µg/mL
SMILES: Clc1ccc2c(N3CCC[C@@H]4CCC[C@@H](N5CCCC5)[C@@H]43)ccnc2c1 (relative stereo) [Example 2, (4a α, 8α, 8aα) (±) 1-(7-chloro-4-quinolinyl)-decahydro-8-(1-pyrrolidinyl)-quinoline dihydrochloride]
